This is an account of results in US10526581B2, “Modulation of cardiac stem-progenitor cell differentiation, assays and uses thereof” (priority 2013, dated 2020).

The test system of this experiment is Nestin^pos progenitor cells from clonal-derived c-kit^pos eCSCs. The experiment can be described thus: neurogenic differentiation of Nestin^pos cells from clonal c-kit^pos eCSCs. The class given is cell-based, rat. To be noted: differentiation medium, 7 days. The text has this: It has been previously shown that cardiac side population cells that express the neural progenitor marker, Nestin, can be induced to differentiate into the ectoderm layer, producing neurons and glial cells (15). We then purified for a population of Nestin^pos progenitor cells from clonal-derived c-kit^pos eCSCs. When placed into differentiation medium supplemented with Retinoic Acid or LIF for 7 days, we found up-regulation of GFAP, MATH2/NeuroD6, a neuron specific transcription factor (FIG. 3C), β-3 tubulin arrayed in filaments and bundles (FIG. 3C), neuron-specific enolase (FIG. 3C), acetylcholintransferase (FIG. 3C), doublecortin (DCX), and S-100β (FIG. 3C). Furthermore, after RA differentiation, cells had characteristics of neuronal dendrites, indicating a morphological change that resembled neurons (FIG. 3C).

With “LIF: supplement of the neural differentiation medium”, the “expression of neural markers (GFAP, MATH2/NeuroD6, β-3 tubulin and others)” value was “up-regulation”.
